{"source": "the supplement of paper PMC9663587", "key": {"[1]": {"compound": "CC(=O)c1c(C)c2cnc(Nc3ccc(N4CCNCC4)cn3)nc2n(C2CCCC2)c1=O", "assay": "increase in dead-cell fraction, 72 h; higher = more death;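 also: breast cancer cell lines in 384-well plates, stained with Hoechst plus LIVE/DEAD far red dye and imaged, cells above an LDR intensity threshold counted dead, Hoechst-negative corpses included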"}, "[2]": {"compound": "CN(C)C(=O)c1cc2cnc(Nc3ccc(N4CCNCC4)cn3)nc2n1C1CCCC1 [LEE011/Ribociclib]", "assay": "increase in dead-cell fraction, 72 h; higher = more death"}, "[3]": {"compound": "CC(=O)c1c(C)c2cnc(Nc3ccc(N4CCN(CCOCCOCCOCCNC(=O)COc5cccc6c5C(=O)N(C5CCC(=O)NC5=O)C6=O)CC4)cn3)nc2n(C2CCCC2)c1=O [BSJ-03-123]", "assay": "increase in dead-cell fraction, 72 h; higher = more death"}, "[4]": {"compound": "CN(C)C/C=C/C(=O)Nc1ccc(C(=O)N2CCC[C@@H](Nc3ncc(Cl)c(-c4c[nH]c5ccccc45)n3)C2)cc1 [THZ531]", "assay": "increase in dead-cell fraction, 72 h; higher = more death"}, "[5]": {"compound": "CN(C)C/C=C/C(=O)Nc1ccc(C(=O)Nc2cccc(Nc3ncc(Cl)c(-c4c[nH]c5ccccc45)n3)c2)cc1 [THZ1]", "assay": "GR value, 72 h; higher = faster growth (1 = untreated, <0 = killing);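 also: breast cancer and non-malignant breast epithelial lines, nine half-log doses, viable cells counted by Hoechst and LIVE/DEAD dye imaging versus time-zero plates and DMSO controls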"}, "[6]": {"compound": "CCOc1cc2ncc(C#N)c(Nc3ccc(OCc4ccccn4)c(Cl)c3)c2cc1NC(=O)/C=C/CN(C)C [Neratinib/HKI272]", "assay": "GR value, 72 h; higher = faster growth (1 = untreated, <0 = killing)"}}, "data": [{"cell line": "HCC1143", "values": [{"measurement": "increase in dead-cell fraction", "setting": "[1]; 0.0003162 µM", "value": 0.0048}, {"measurement": "increase in dead-cell fraction", "setting": "[1]; 0.001 µM", "value": 0.0021}, {"measurement": "increase in dead-cell fraction", "setting": "[1]; 0.003162 µM", "value": -0.0047}, {"measurement": "increase in dead-cell fraction", "setting": "[1]; 0.01 µM", "value": -0.0052}, {"measurement": "increase in dead-cell fraction", "setting": "[1]; 0.03162 µM", "value": -0.0059}, {"measurement": "increase in dead-cell fraction", "setting": "[1]; 0.1 µM", "value": -0.0023}, {"measurement": "increase in dead-cell fraction", "setting": "[1]; 0.3162 µM", "value": -0.0052}, {"measurement": "increase in dead-cell fraction", "setting": "[1]; 1 µM", "value": -0.0085}, {"measurement": "increase in dead-cell fraction", "setting": "[1]; 3.162 µM", "value": 0.0036}, {"measurement": "increase in dead-cell fraction", "setting": "[2]; 0.001 µM", "value": -0.0077}, {"measurement": "increase in dead-cell fraction", "setting": "[2]; 0.003162 µM", "value": 0.0012}, {"measurement": "increase in dead-cell fraction", "setting": "[2]; 0.01 µM", "value": 0}, {"measurement": "increase in dead-cell fraction", "setting": "[2]; 0.03162 µM", "value": 0.001}, {"measurement": "increase in dead-cell fraction", "setting": "[2]; 0.1 µM", "value": 0.0077}, {"measurement": "increase in dead-cell fraction", "setting": "[2]; 0.3162 µM", "value": 0.0065}, {"measurement": "increase in dead-cell fraction", "setting": "[2]; 1 µM", "value": 0.0007}, {"measurement": "increase in dead-cell fraction", "setting": "[2]; 3.162 µM", "value": 0.009}, {"measurement": "increase in dead-cell fraction", "setting": "[2]; 10 µM", "value": 0.0365}, {"measurement": "increase in dead-cell fraction", "setting": "[3]; 0.001 µM", "value": 0.0033}, {"measurement": "increase in dead-cell fraction", "setting": "[3]; 0.003162 µM", "value": 0.0019}, {"measurement": "increase in dead-cell fraction", "setting": "[3]; 0.01 µM", "value": -0.0022}, {"measurement": "increase in dead-cell fraction", "setting": "[3]; 0.03162 µM", "value": -0.0018}, {"measurement": "increase in dead-cell fraction", "setting": "[3]; 0.1 µM", "value": 0.0104}, {"measurement": "increase in dead-cell fraction", "setting": "[3]; 0.3162 µM", "value": 0.011}, {"measurement": "increase in dead-cell fraction", "setting": "[3]; 1 µM", "value": 0.0065}, {"measurement": "increase in dead-cell fraction", "setting": "[3]; 3.162 µM", "value": 0.0186}, {"measurement": "increase in dead-cell fraction", "setting": "[3]; 10 µM", "value": 0.102}, {"measurement": "increase in dead-cell fraction", "setting": "[4]; 0.0001 µM", "value": 0.0046}, {"measurement": "increase in dead-cell fraction", "setting": "[4]; 0.0003162 µM", "value": 0.0047}, {"measurement": "increase in dead-cell fraction", "setting": "[4]; 0.001 µM", "value": 0.0003}, {"measurement": "increase in dead-cell fraction", "setting": "[4]; 0.003162 µM", "value": 0.0002}, {"measurement": "increase in dead-cell fraction", "setting": "[4]; 0.01 µM", "value": -0.0009}, {"measurement": "increase in dead-cell fraction", "setting": "[4]; 0.03162 µM", "value": 0.0121}, {"measurement": "increase in dead-cell fraction", "setting": "[4]; 0.1 µM", "value": 0.0256}, {"measurement": "increase in dead-cell fraction", "setting": "[4]; 0.3162 µM", "value": 0.117}, {"measurement": "increase in dead-cell fraction", "setting": "[4]; 1 µM", "value": 0.134}, {"measurement": "GR value", "setting": "[5]; 0.0001 µM", "value": 0.953, "unit": "GR"}, {"measurement": "GR value", "setting": "[5]; 0.0003162 µM", "value": 1.04, "unit": "GR"}, {"measurement": "GR value", "setting": "[5]; 0.001 µM", "value": 1, "unit": "GR"}, {"measurement": "GR value", "setting": "[5]; 0.003162 µM", "value": 0.989, "unit": "GR"}, {"measurement": "GR value", "setting": "[5]; 0.01 µM", "value": 0.908, "unit": "GR"}, {"measurement": "GR value", "setting": "[5]; 0.03162 µM", "value": 0.303, "unit": "GR"}, {"measurement": "GR value", "setting": "[5]; 0.1 µM", "value": -0.271, "unit": "GR"}, {"measurement": "GR value", "setting": "[5]; 0.3162 µM", "value": -0.266, "unit": "GR"}, {"measurement": "GR value", "setting": "[5]; 1 µM", "value": -0.31, "unit": "GR"}, {"measurement": "GR value", "setting": "[6]; 0.0003162 µM", "value": 0.964, "unit": "GR"}, {"measurement": "GR value", "setting": "[6]; 0.001 µM", "value": 0.951, "unit": "GR"}, {"measurement": "GR value", "setting": "[6]; 0.003162 µM", "value": 0.941, "unit": "GR"}, {"measurement": "GR value", "setting": "[6]; 0.01 µM", "value": 0.864, "unit": "GR"}, {"measurement": "GR value", "setting": "[6]; 0.03162 µM", "value": 0.876, "unit": "GR"}, {"measurement": "GR value", "setting": "[6]; 0.1 µM", "value": 0.761, "unit": "GR"}, {"measurement": "GR value", "setting": "[6]; 0.3162 µM", "value": 0.654, "unit": "GR"}, {"measurement": "GR value", "setting": "[6]; 1 µM", "value": 0.458, "unit": "GR"}, {"measurement": "GR value", "setting": "[6]; 3.162 µM", "value": 0.0904, "unit": "GR"}]}]}
